The supplement of paper PMC10627819

Assays:
B. subtilis 168 [1] = assay: fitness (endpoint OD595 vs no drug) (fraction); higher = more growth
Summary of the method: (§1)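 Plates with 384 wells were inoculated at OD595 0.01 using 30 µl of TSB, LB Lennox or CY, or 55 µl for S. pneumoniae. Incubation was at 37 °C, with OD595 measured every 30 min for 14 h. Fitness is the stationary-phase transition optical density over the robust mean of no-drug control wells, after first-reading background subtraction; it is capped at 1.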

S. pneumoniae D39V [2] = assay: as above
Summary of the method: as §1

B. subtilis 168 [3] = assay: Bliss interaction score (quartile over a dose matrix) (fitness difference); higher = more antagonism (negative = synergy)
Summary of the method: (§2)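 Fitness was defined as normalised growth: OD595 at the start of stationary phase divided by the plate's robust no-drug mean and capped at 1. Single-drug fitness was inferred from combination measurements. The Bliss score is observed fitness minus the product of the single-drug values, summarised by quartiles across technical, biological and donor/recipient replicates.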

S. aureus DSM 20231 = assay: as above
Summary of the method: as §2

S. aureus Newman = assay: as above
Summary of the method: as §2

S. pneumoniae D39V [4] = assay: as above
Summary of the method: as §2
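Throughout, for Bliss interaction score (quartile over a dose matrix): first quartile when negative (synergy) and third quartile when positive (antagonism).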

C[C@H]1COc2c(N3CCN(C)CC3)c(F)cc3c(=O)c(C(=O)O)cn1c23 [Levofloxacin] + CN1C2=CC=CC=C2N=C3C1=CC=CC3=O [Pyocyanin]
fitness, one replicate
Settings | first compound 0.001 µg/mL | first compound 0.002 µg/mL | first compound 0.0039 µg/mL | first compound 0.2 µg/mL | first compound 0.4 µg/mL | first compound 0.8 µg/mL
B. subtilis 168 [1], partner 1.25 µg/mL | 0.891 | 0.8 | 0.846 | – | – | –
B. subtilis 168 [1], partner 2.5 µg/mL | 0.864 | 0.813 | 0.795 | – | – | –
B. subtilis 168 [1], partner 5 µg/mL | 0.68 | 0.621 | 0.64 | – | – | –
S. pneumoniae D39V [2], partner 0.325 µg/mL | – | – | – | 0.878 | 0.371 | 0.296
S. pneumoniae D39V [2], partner 0.65 µg/mL | – | – | – | 0.965 | 0.875 | 0.679

fitness
Settings | first compound 0.0312 µg/mL | first compound 0.0625 µg/mL | first compound 0.125 µg/mL | first compound 0.1725 µg/mL | first compound 0.345 µg/mL | first compound 0.69 µg/mL
B. subtilis 168 [1], partner 1.25 µg/mL | 0.0394 | 0.0289 | 0.03 | – | – | –
B. subtilis 168 [1], partner 2.5 µg/mL | 0.0377 | 0.0408 | 0.0364 | – | – | –
B. subtilis 168 [1], partner 5 µg/mL | 0.0364 | 0.0433 | 0.0258 | – | – | –
S. pneumoniae D39V [2], partner 0.325 µg/mL | – | – | – | 0.988 | 0.936 | 0.668
S. pneumoniae D39V [2], partner 0.65 µg/mL | – | – | – | 0.958 | 0.896 | 0.596
S. pneumoniae D39V [2], partner 1.3 µg/mL | – | – | – | 0.782 | 0.74 | 0.459

Settings | Bliss interaction score
B. subtilis 168 [3] | -0.0161
S. aureus DSM 20231 | 0.0335
S. aureus Newman | -0.0335
S. pneumoniae D39V [4] | 0.0846

C[C@H]1COc2c(N3CCN(C)CC3)c(F)cc3c(=O)c(C(=O)O)cn1c23 [Levofloxacin] + CN(C)C(=O)C(CCN1CCC(O)(c2ccc(Cl)cc2)CC1)(c1ccccc1)c1ccccc1 [Loperamide]
fitness, one replicate
Settings | first compound 0.001 µg/mL | first compound 0.002 µg/mL | first compound 0.0039 µg/mL | first compound 0.2 µg/mL | first compound 0.4 µg/mL | first compound 0.8 µg/mL
B. subtilis 168 [1], partner 25 µg/mL | 0.807 | 0.714 | 0.714 | – | – | –
B. subtilis 168 [1], partner 50 µg/mL | 0.618 | 0.172 | 0.206 | – | – | –
B. subtilis 168 [1], partner 100 µg/mL | 0.613 | 0.51 | 0.581 | – | – | –
S. pneumoniae D39V [2], partner 68.57 µg/mL | – | – | – | 0.913 | 0.896 | 0.864

Settings | fitness
B. subtilis 168 [1], first compound 0.0312 µg/mL, partner 25 µg/mL | 0.0337
B. subtilis 168 [1], first compound 0.0312 µg/mL, partner 50 µg/mL | 0.0298
B. subtilis 168 [1], first compound 0.0312 µg/mL, partner 100 µg/mL | 0.0296
B. subtilis 168 [1], first compound 0.0625 µg/mL, partner 25 µg/mL | 0.0122
B. subtilis 168 [1], first compound 0.0625 µg/mL, partner 50 µg/mL | 0.0229
B. subtilis 168 [1], first compound 0.0625 µg/mL, partner 100 µg/mL | 0.0349
B. subtilis 168 [1], first compound 0.125 µg/mL, partner 25 µg/mL | 0.0335
B. subtilis 168 [1], first compound 0.125 µg/mL, partner 50 µg/mL | 0.0386
B. subtilis 168 [1], first compound 0.125 µg/mL, partner 100 µg/mL | 0.0401
S. pneumoniae D39V [2], first compound 0.1725 µg/mL, partner 20 µg/mL | ≥ 1
S. pneumoniae D39V [2], first compound 0.1725 µg/mL, partner 40 µg/mL | ≥ 1
S. pneumoniae D39V [2], first compound 0.2 µg/mL, partner 17.14 µg/mL | 0.877
S. pneumoniae D39V [2], first compound 0.2 µg/mL, partner 34.28 µg/mL | 0.9
S. pneumoniae D39V [2], first compound 0.345 µg/mL, partner 20 µg/mL | 0.998
S. pneumoniae D39V [2], first compound 0.345 µg/mL, partner 40 µg/mL | ≥ 1
S. pneumoniae D39V [2], first compound 0.4 µg/mL, partner 17.14 µg/mL | 0.901
S. pneumoniae D39V [2], first compound 0.4 µg/mL, partner 34.28 µg/mL | 0.883
S. pneumoniae D39V [2], first compound 0.69 µg/mL, partner 20 µg/mL | 0.787
S. pneumoniae D39V [2], first compound 0.69 µg/mL, partner 40 µg/mL | 0.837
S. pneumoniae D39V [2], first compound 0.8 µg/mL, partner 34.28 µg/mL | 0.642

Settings | Bliss interaction score
B. subtilis 168 [3] | 0.155
S. aureus DSM 20231 | 0.0444
S. aureus Newman | 0.0501
S. pneumoniae D39V [4] | 0.189

C[C@H]1COc2c(N3CCN(C)CC3)c(F)cc3c(=O)c(C(=O)O)cn1c23 [Levofloxacin] + CN(C)c1cc(NC(=O)CNC(C)(C)C)c(O)c2c1C[C@H]1C[C@H]3[C@H](N(C)C)C(O)=C(C(N)=O)C(=O)[C@@]3(O)C(O)=C1C2=O [Tigecycline]
fitness, B. subtilis 168 [1], one replicate
Settings | partner 0.039 µg/mL | partner 0.078 µg/mL | partner 0.125 µg/mL | partner 0.156 µg/mL | partner 0.25 µg/mL | partner 0.5 µg/mL
first compound 0.001 µg/mL | 0.897 | 0.893 | – | 0.926 | – | –
first compound 0.002 µg/mL | 0.932 | 0.911 | ≥ 1 | 0.878 | 0.862 | 0.993
first compound 0.0039 µg/mL | 0.847 | 0.855 | 0.985 | 0.971 | 0.955 | 0.887
first compound 0.0078 µg/mL | – | – | 0.94 | – | 0.94 | 0.885

fitness
Settings | first compound 0.0312 µg/mL | first compound 0.0625 µg/mL | first compound 0.125 µg/mL | first compound 0.1725 µg/mL | first compound 0.2 µg/mL | first compound 0.345 µg/mL | first compound 0.4 µg/mL | first compound 0.69 µg/mL | first compound 0.8 µg/mL
B. subtilis 168 [1], partner 0.039 µg/mL | 0.0258 | 0.0305 | 0.0314 | – | – | – | – | – | –
B. subtilis 168 [1], partner 0.078 µg/mL | 0.0327 | 0.0457 | 0.0438 | – | – | – | – | – | –
B. subtilis 168 [1], partner 0.156 µg/mL | 0.0426 | 0.0476 | 0.0441 | – | – | – | – | – | –
S. pneumoniae D39V [2], partner 0.65 µg/mL | – | – | – | 0.96 | 0.853 | 0.88 | 0.712 | 0.456 | 0.301
S. pneumoniae D39V [2], partner 1.3 µg/mL | – | – | – | 0.949 | 0.842 | 0.85 | 0.713 | 0.537 | 0.35
S. pneumoniae D39V [2], partner 2.6 µg/mL | – | – | – | 0.926 | 0.81 | 0.835 | 0.705 | 0.544 | 0.321

Settings | Bliss interaction score
B. subtilis 168 [3] | -0.0381
S. aureus DSM 20231 | -0.101
S. aureus Newman | -0.045
S. pneumoniae D39V [4] | -0.132

C[C@H]1COc2c(N3CCN(C)CC3)c(F)cc3c(=O)c(C(=O)O)cn1c23 [Levofloxacin] + CN(N=O)C(=O)N[C@@H](C=O)[C@@H](O)[C@H](O)[C@H](O)CO [Streptozotocin]
fitness, one replicate
Settings | first compound 0.001 µg/mL | first compound 0.002 µg/mL | first compound 0.0039 µg/mL | first compound 0.0312 µg/mL | first compound 0.0625 µg/mL | first compound 0.125 µg/mL | first compound 0.2 µg/mL | first compound 0.4 µg/mL | first compound 0.8 µg/mL
B. subtilis 168 [1], partner 0.15 µg/mL | 0.98 | 0.923 | 0.934 | 0.0317 | 0.0292 | 0.0367 | – | – | –
B. subtilis 168 [1], partner 0.3 µg/mL | 0.96 | 0.948 | 0.886 | 0.0288 | 0.0412 | 0.0451 | – | – | –
B. subtilis 168 [1], partner 0.6 µg/mL | ≥ 1 | ≥ 1 | 0.979 | 0.025 | 0.0304 | 0.0177 | – | – | –
S. pneumoniae D39V [2], partner 1.2 µg/mL | – | – | – | – | – | – | 0.925 | 0.759 | 0.259
S. pneumoniae D39V [2], partner 2.4 µg/mL | – | – | – | – | – | – | 0.909 | 0.802 | 0.302
S. pneumoniae D39V [2], partner 4.8 µg/mL | – | – | – | – | – | – | 0.823 | 0.603 | 0.0669

fitness, S. pneumoniae D39V [2]
Settings | first compound 0.1725 µg/mL | first compound 0.345 µg/mL | first compound 0.69 µg/mL
partner 1.2 µg/mL | 0.938 | 0.816 | 0.362
partner 2.4 µg/mL | 0.936 | 0.845 | 0.398
partner 4.8 µg/mL | 0.952 | 0.841 | 0.44

Settings | Bliss interaction score
B. subtilis 168 [3] | 0.0603
S. aureus DSM 20231 | -0.0228
S. aureus Newman | -0.102
S. pneumoniae D39V [4] | -0.0624
